Measured values as given in patent publication US20250368666A1, “INDAZOLE COMPOUNDS” (TYRA BIOSCIENCES, INC., priority 2022, published 2025).

How the values were obtained:
[1] = target: T1, FGFR1 (Homo sapiens, UniProt P11362); test: Kinase binding assay (kinase-tagged T7 phage, affinity beads, qPCR), Kd; conditions: read-out: FGFR1 (Kd nM)
T1 construct: made in house; host or cells: E. coli (BL21-derived), T7 phage
Summary of the method: (§1)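 First, phage lysates carrying tagged kinase are made in E. coli at 32° C. Next, they are combined with blocked biotin-ligand streptavidin beads and compound at 0.9% final DMSO. Finally, eluted kinase is measured by qPCR and Kd is fitted with the Hill equation.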

[2] = target: T2, FGFR2 (Homo sapiens, UniProt P21802); test: as above; conditions: read-out: FGFR2 (Kd nM)
T2 construct: made in house; host or cells: E. coli (BL21-derived), T7 phage
T2 sequence (P21802 22-821): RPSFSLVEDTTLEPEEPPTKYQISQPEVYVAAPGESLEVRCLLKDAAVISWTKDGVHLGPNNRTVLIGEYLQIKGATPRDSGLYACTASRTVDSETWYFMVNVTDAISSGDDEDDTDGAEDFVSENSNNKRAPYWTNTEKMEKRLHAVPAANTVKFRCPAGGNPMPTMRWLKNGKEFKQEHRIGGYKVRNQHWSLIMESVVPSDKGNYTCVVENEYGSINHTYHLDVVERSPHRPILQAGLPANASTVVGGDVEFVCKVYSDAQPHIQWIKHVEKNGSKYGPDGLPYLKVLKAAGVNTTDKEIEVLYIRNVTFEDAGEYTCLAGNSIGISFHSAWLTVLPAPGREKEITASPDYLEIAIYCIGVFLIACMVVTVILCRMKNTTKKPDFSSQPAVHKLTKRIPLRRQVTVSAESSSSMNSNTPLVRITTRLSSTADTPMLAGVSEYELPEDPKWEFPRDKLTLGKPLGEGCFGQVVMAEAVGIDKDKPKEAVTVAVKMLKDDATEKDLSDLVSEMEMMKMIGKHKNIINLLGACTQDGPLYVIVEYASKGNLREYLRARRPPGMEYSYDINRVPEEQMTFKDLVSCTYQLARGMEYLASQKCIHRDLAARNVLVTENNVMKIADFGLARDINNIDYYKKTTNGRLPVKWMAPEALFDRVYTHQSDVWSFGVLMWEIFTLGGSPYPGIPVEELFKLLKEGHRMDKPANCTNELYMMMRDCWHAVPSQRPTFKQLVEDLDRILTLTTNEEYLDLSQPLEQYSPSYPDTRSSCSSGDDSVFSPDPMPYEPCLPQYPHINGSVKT
Summary of the method: as §1

[3] = target: T3, FGFR3 (Homo sapiens, UniProt P22607); test: as above; conditions: read-out: FGFR3 (Kd nM)
T3 construct: made in house; host or cells: E. coli (BL21-derived), T7 phage
T3 sequence (P22607 23-806): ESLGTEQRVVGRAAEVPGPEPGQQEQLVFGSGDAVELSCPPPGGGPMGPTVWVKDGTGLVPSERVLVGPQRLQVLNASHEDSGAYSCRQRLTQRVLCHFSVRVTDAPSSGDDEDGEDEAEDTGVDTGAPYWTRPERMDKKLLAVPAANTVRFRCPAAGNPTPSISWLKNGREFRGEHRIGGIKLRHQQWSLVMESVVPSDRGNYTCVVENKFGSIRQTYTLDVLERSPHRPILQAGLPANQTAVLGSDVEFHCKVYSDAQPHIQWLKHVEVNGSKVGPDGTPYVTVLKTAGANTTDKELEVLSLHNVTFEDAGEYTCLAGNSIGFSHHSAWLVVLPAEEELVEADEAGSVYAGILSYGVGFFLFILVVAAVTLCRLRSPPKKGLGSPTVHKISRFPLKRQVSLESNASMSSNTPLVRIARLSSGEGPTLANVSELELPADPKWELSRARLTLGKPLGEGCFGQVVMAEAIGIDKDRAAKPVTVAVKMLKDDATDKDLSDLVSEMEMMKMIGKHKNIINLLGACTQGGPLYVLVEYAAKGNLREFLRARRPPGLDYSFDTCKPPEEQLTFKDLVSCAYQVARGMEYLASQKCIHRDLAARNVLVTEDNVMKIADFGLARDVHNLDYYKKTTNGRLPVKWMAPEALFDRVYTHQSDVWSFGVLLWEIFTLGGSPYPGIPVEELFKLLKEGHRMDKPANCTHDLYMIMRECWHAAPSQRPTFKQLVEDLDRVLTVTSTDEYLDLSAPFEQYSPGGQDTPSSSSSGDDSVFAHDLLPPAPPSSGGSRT
Summary of the method: as §1

[4] = target: T4, FGFR3 (V555M) (Homo sapiens, UniProt P22607, V555M); test: as above; conditions: V555M mutant; read-out: FGFR3 (V555M) (Kd nM)
T4 construct: made in house; host or cells: E. coli (BL21-derived), T7 phage
T4 sequence (P22607 23-806 V555M): as the sequence (P22607 23-806) above, with V533M counted along it
Summary of the method: as §1

[5] = target: T5, FGFR4 (Homo sapiens, UniProt P22455); test: as above; conditions: read-out: FGFR4 (Kd nM)
T5 construct: made in house; host or cells: E. coli (BL21-derived), T7 phage
T5 sequence (P22455 22-802): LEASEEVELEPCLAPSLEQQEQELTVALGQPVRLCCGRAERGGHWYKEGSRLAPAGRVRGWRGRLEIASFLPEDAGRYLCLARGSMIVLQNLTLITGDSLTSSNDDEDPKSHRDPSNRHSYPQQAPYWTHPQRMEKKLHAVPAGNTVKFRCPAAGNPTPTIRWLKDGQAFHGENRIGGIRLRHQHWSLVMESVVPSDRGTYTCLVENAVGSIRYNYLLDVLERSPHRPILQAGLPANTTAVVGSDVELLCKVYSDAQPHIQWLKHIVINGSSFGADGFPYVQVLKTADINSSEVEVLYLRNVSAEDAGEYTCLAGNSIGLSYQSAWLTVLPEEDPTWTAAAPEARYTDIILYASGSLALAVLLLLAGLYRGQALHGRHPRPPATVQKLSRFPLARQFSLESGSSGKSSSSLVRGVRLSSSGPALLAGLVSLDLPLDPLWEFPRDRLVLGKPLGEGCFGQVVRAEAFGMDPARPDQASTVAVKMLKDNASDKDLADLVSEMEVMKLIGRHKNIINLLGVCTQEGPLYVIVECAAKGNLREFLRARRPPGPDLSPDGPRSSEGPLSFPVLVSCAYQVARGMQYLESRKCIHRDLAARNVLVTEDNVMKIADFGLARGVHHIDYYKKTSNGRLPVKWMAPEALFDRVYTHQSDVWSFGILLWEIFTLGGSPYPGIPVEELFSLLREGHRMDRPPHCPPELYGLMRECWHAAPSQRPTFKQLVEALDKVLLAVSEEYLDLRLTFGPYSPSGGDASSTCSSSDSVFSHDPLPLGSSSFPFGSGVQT
Summary of the method: as §1

[6] = test system: KATO-III cell line (FGFR2 amplification); test: Cancer cell line cell viability assay (Cell Titer-Glo), 72 hr; type: cell-based; conditions: Homo sapiens, KATO III
Summary of the method: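 Luminescent ATP read-out (Cell Titer-Glo 2.0) after compound exposure, normalised to DMSO-only wells. Dosing: 9 concentrations, 4-fold steps, top 3 μM, triplicates. IC50 derived by log(inhibitor) vs. response 4-parameter fit.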

[7] = test system: KG-1 cell line (FGFR 1-fusion); test: as above; type: cell-based; conditions: Homo sapiens, KG-1, KG-1 cell line (FGFR1-fusion)
Summary of the method: (§2)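 Intracellular ATP was measured by Cell Titer-Glo 2.0 luminescence after cells were incubated with compound dilutions (top 3 μM, 4-fold, 9 doses). Values were expressed relative to DMSO-treated cells and IC50 was calculated from a variable-slope dose-response curve.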

[8] = test system: RT112/84 cell line (FGFR3-fusion); test: as above; type: cell-based; conditions: Homo sapiens, RT112/84, RT112/84 cell line (FGFR3-fusion)
Summary of the method: as §2

T1 sequence (P11362 22-822): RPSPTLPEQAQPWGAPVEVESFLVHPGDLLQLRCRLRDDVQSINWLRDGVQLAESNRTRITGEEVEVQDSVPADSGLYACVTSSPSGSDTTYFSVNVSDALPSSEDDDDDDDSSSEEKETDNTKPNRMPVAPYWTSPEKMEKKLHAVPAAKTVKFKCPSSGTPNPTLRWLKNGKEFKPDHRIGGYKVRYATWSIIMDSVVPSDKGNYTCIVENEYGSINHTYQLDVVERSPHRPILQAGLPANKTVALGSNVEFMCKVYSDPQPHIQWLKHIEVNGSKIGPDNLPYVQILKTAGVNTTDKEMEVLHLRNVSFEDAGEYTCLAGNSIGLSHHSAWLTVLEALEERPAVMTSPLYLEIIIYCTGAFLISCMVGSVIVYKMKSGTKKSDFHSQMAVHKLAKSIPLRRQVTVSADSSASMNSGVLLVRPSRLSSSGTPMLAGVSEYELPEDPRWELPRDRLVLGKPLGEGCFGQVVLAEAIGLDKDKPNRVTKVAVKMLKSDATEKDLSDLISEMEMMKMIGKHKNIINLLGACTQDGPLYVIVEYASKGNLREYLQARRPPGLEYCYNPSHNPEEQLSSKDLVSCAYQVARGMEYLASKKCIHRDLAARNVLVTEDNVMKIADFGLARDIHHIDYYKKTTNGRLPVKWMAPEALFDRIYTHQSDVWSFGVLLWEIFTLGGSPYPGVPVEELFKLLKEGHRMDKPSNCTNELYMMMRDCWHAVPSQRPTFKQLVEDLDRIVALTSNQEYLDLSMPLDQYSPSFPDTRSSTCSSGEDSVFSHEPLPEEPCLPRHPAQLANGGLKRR

Row | SMILES | Kd [1] | Kd [2] | Kd [3] | Kd [4] | Kd [5] | IC50 [6] | IC50 [7] | IC50 [8]
1 | C[C@@H](Oc1ccc2[nH]nc(-c3ccc(N4CC(C)(CN(C)S(C)(=O)=O)C4)nc3)c2c1)c1c(Cl)cncc1Cl [Example 74, (R)-N-((1-(5-(5-(1-(3,5-dichloropyridin-4-yl)ethoxy)-1H-indazol-3-yl)pyridin-2-yl)-3-methylazetidin-3-yl)methyl)-N-methylmethanesulfona-mide] | 1 to 50 nM | 1 to 50 nM | 1 to 50 nM | 1 to 50 nM | 1 to 50 nM | 0.1 to 50 nM | 50 to 200 nM | 0.1 to 50 nM
2 | C[C@@H](Oc1ccc2[nH]nc(-c3ccc(N4CC(C)(NCCO)C4)nc3)c2c1)c1c(Cl)cncc1Cl [Example 89, (R)-2-((1-(5-(5-(1-(3,5-dichloropyridin-4-yl)ethoxy)-1H-indazol-3-yl)pyridin-2-yl)-3-methylazetidin-3-yl)amino)ethan-1-ol] | 1 to 50 nM | 1 to 50 nM | 1 to 50 nM | 1 to 50 nM | 1 to 50 nM | 0.1 to 50 nM | 0.1 to 50 nM | 0.1 to 50 nM
3 | C[C@H](O)CNC1(C)CN(c2ccc(-c3n[nH]c4ccc(O[C@H](C)c5c(Cl)cncc5Cl)cc34)cn2)C1 [Example 90, (S)-1-((1-(5-(5-((R)-1-(3,5-dichloropyridin-4-yl)ethoxy)-1H-indazol-3-yl)pyridin-2-yl)-3-methylazetidin-3-yl)amino)propan-2-ol] | 1 to 50 nM | 1 to 50 nM | 1 to 50 nM | 1 to 50 nM | 1 to 50 nM | 0.1 to 50 nM | 0.1 to 50 nM | 0.1 to 50 nM
4 | C[C@@H](O)CNC1(C)CN(c2ccc(-c3n[nH]c4ccc(O[C@H](C)c5c(Cl)cncc5Cl)cc34)cn2)C1 [Example 91, (R)-1-((1-(5-(5-((R)-1-(3,5-dichloropyridin-4-yl)ethoxy)-1H-indazol-3-yl)pyridin-2-yl)-3-methylazetidin-3-yl)amino)propan-2-ol] | 1 to 50 nM | 1 to 50 nM | 1 to 50 nM | 1 to 50 nM | 1 to 50 nM | 0.1 to 50 nM | 0.1 to 50 nM | 0.1 to 50 nM
5 | C[C@@H](Oc1ccc2[nH]nc(-c3ccc(N4CC(C)(OCC(C)(C)O)C4)nc3)c2c1)c1c(Cl)cncc1Cl [Example 93, (R)-1-((1-(5-(5-(1-(3,5-dichloropyridin-4-yl)ethoxy)-1H-indazol-3-yl)pyridin-2-yl)-3-methylazetidin-3-yl)oxy)-2-methylpropan-2-ol] | 1 to 50 nM | 1 to 50 nM | 1 to 50 nM | 1 to 50 nM | 1 to 50 nM | 0.1 to 50 nM | 50 to 200 nM | 0.1 to 50 nM
6 | C[C@@H](Oc1ccc2[nH]nc(-c3ccc(N4CC(C)(NC(=O)CN(C)C)C4)nc3)c2c1)c1c(Cl)cncc1Cl [Example 95, (R)-N-(1-(5-(5-(1-(3,5-dichloropyridin-4-yl)ethoxy)-1H-indazol-3-yl)pyridin-2-yl)-3-methylazetidin-3-yl)-2-(dimethylamino)acetamide] | 1 to 50 nM | 1 to 50 nM | 1 to 50 nM | 1 to 50 nM | 1 to 50 nM | 0.1 to 50 nM | 0.1 to 50 nM | 0.1 to 50 nM
7 | C[C@@H](Oc1ccc2[nH]nc(-c3cnc(N4CC(C)(N5CC(C)(O)C5)C4)c(F)c3)c2c1)c1c(Cl)cncc1Cl [Example 96, (R)-1′-(5-(5-(1-(3,5-dichloropyridin-4-yl)ethoxy)-1H-indazol-3-yl)-3-fluoropyridin-2-yl)-3,3′-dimethyl-[1,3′-biazetidin]-3-ol] | 1 to 50 nM | 1 to 50 nM | 1 to 50 nM | 1 to 50 nM | 1 to 50 nM | 0.1 to 50 nM | 0.1 to 50 nM | 0.1 to 50 nM
8 | COC1(C)CN(C2(C)CN(c3ncc(-c4n[nH]c5ccc(O[C@H](C)c6c(Cl)cncc6Cl)cc45)cc3F)C2)C1 [Example 97, (R)-5-(1-(3,5-dichloropyridin-4-yl)ethoxy)-3-(5-fluoro-6-(3-methoxy-3,3′-dimethyl-[1,3′-biazetidin]-1′-yl)pyridin-3-yl)-1H-indazole] | 1 to 50 nM | 1 to 50 nM | 1 to 50 nM | 1 to 50 nM | 1 to 50 nM | 0.1 to 50 nM | 50 to 200 nM | 0.1 to 50 nM
9 | C[C@@H](Oc1ccc2[nH]nc(-c3cnc(N4CC(C)(N5CCC5)C4)c(F)c3)c2c1)c1c(Cl)cncc1Cl [Example 103, (R)-5-(1-(3,5-dichloropyridin-4-yl)ethoxy)-3-(5-fluoro-6-(3′-methyl-[1,3′-biazetidin]-1′-yl)pyridin-3-yl)-1H-indazole] | 1 to 50 nM | 1 to 50 nM | 1 to 50 nM | 1 to 50 nM | 1 to 50 nM | 0.1 to 50 nM | 0.1 to 50 nM | 0.1 to 50 nM
10 | CC(C)NCC1(C)CN(c2ncc(-c3n[nH]c4ccc(O[C@H](C)c5c(Cl)cncc5Cl)cc34)cc2F)C1 [Example 108, (R)-N-((1-(5-(5-(1-(3,5-dichloropyridin-4-yl)ethoxy)-1H-indazol-3-yl)-3-fluoropyridin-2-yl)-3-methylazetidin-3-yl)methyl)propan-2-amine] | 1 to 50 nM | 1 to 50 nM | 1 to 50 nM | 1 to 50 nM | 1 to 50 nM | 0.1 to 50 nM | 0.1 to 50 nM | 0.1 to 50 nM
11 | C[C@@H](Oc1ccc2[nH]nc(-c3cnc(N4CC(C)(CN5CCOCC5)C4)c(F)c3)c2c1)c1c(Cl)cncc1Cl [Example 109, (R)-4-((1-(5-(5-(1-(3,5-dichloropyridin-4-yl)ethoxy)-1H-indazol-3-yl)-3-fluoropyridin-2-yl)-3-methylazetidin-3-yl)methyl)morpholine] | 1 to 50 nM | 1 to 50 nM | 1 to 50 nM | 1 to 50 nM | 1 to 50 nM | 50 to 200 nM | 50 to 200 nM | 0.1 to 50 nM
12 | C[C@@H](Oc1ccc2[nH]nc(-c3cnc(N4CC(C)(CN5CCCC5)C4)c(F)c3)c2c1)c1c(Cl)cncc1Cl [Example 110, (R)-5-(1-(3,5-dichloropyridin-4-yl)ethoxy)-3-(5-fluoro-6-(3-methyl-3-(pyrrolidin-1-ylmethyl)azetidin-1-yl)pyridin-3-yl)-1H-indazole] | 1 to 50 nM | 1 to 50 nM | 1 to 50 nM | 1 to 50 nM | 1 to 50 nM | 0.1 to 50 nM | 0.1 to 50 nM | 0.1 to 50 nM
13 | C[C@@H](Oc1ccc2[nH]nc(-c3cnc(N4CC(C)(N5CC(C)(C)C5)C4)c(F)c3)c2c1)c1c(Cl)cncc1Cl [Example 111, (R)-5-(1-(3,5-dichloropyridin-4-yl)ethoxy)-3-(5-fluoro-6-(3,3,3′-trimethyl-[1,3′-biazetidin]-1′-yl)pyridin-3-yl)-1H-indazole] | 1 to 50 nM | 1 to 50 nM | 1 to 50 nM | 1 to 50 nM | 1 to 50 nM | 0.1 to 50 nM | 50 to 200 nM | 0.1 to 50 nM
14 | C[C@H](O)CNC1(C)CN(c2ncc(-c3n[nH]c4ccc(O[C@H](C)c5c(Cl)cncc5Cl)cc34)cc2F)C1 [Example 112, (S)-1-((1-(5-(5-((R)-1-(3,5-dichloropyridin-4-yl)ethoxy)-1H-indazol-3-yl)-3-fluoropyridin-2-yl)-3-methylazetidin-3-yl)amino)propan-2-ol] | 1 to 50 nM | 1 to 50 nM | 1 to 50 nM | 1 to 50 nM | 1 to 50 nM | 0.1 to 50 nM | 0.1 to 50 nM | 0.1 to 50 nM
15 | C[C@@H](Oc1ccc2[nH]nc(-c3cnc(N4CC(C)(NCC(C)(C)O)C4)c(F)c3)c2c1)c1c(Cl)cncc1Cl [Example 113, (R)-1-((1-(5-(5-(1-(3,5-dichloropyridin-4-yl)ethoxy)-1H-indazol-3-yl)-3-fluoropyridin-2-yl)-3-methylazetidin-3-yl)amino)-2-methylpropan-2-ol] | 1 to 50 nM | 1 to 50 nM | 1 to 50 nM | 1 to 50 nM | 1 to 50 nM | 0.1 to 50 nM | 50 to 200 nM | 0.1 to 50 nM
16 | C[C@@H](Oc1ccc2[nH]nc(-c3cnc(N4CC(C)(NCCO)C4)c(F)c3)c2c1)c1c(Cl)cncc1Cl [Example 114, (R)-2-((1-(5-(5-(1-(3,5-dichloropyridin-4-yl)ethoxy)-1H-indazol-3-yl)-3-fluoropyridin-2-yl)-3-methylazetidin-3-yl)amino)ethan-1-ol] | 1 to 50 nM | 1 to 50 nM | 1 to 50 nM | 1 to 50 nM | 1 to 50 nM | 0.1 to 50 nM | 0.1 to 50 nM | 0.1 to 50 nM
